Entries after “also recorded” stand apart in the source; their conditions may differ. Read-outs that look alike come from different tables or passages of the source.
Key:
[1] = target: T1, hLigI (Homo sapiens, UniProt P18858); assay: High-throughput fluorescence-based DNA joining (ligation) assay; format: biochemical; settings: for inhibition of hLigI (DNA ligase I), in words: in vitro screen, 100 μmol/L, the 15 hLigI inhibitors inhibited by >50%
T1 construct: made in house
Summary of the method: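 Nicked DNA substrate (10 pmol) was incubated with 0.25 pmol hLigI, with or without 100 μmol/L test compound, in duplicate. Afterwards the DNA was denatured and renatured with a 20-fold excess of unmodified oligonucleotide. Ligation forms an AF488/BHQ1 hairpin, read as reduced fluorescence at 518 nm.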

[2] = target: hLigIV/XRCC4 (Homo sapiens, UniProt P49917); assay: Radioactive gel-based DNA ligation assay; format: biochemical; set-up: concentration or dose not given beside the values
[3] = target: T2, T4 DNA ligase (Enterobacteria phage T4, UniProt P00970); assay: High-throughput fluorescence-based DNA joining assay, non-specific inhibitor control; format: biochemical, bacteriophage T4
T2 construct: purchased NEB
T2 sequence (P00970 1-487): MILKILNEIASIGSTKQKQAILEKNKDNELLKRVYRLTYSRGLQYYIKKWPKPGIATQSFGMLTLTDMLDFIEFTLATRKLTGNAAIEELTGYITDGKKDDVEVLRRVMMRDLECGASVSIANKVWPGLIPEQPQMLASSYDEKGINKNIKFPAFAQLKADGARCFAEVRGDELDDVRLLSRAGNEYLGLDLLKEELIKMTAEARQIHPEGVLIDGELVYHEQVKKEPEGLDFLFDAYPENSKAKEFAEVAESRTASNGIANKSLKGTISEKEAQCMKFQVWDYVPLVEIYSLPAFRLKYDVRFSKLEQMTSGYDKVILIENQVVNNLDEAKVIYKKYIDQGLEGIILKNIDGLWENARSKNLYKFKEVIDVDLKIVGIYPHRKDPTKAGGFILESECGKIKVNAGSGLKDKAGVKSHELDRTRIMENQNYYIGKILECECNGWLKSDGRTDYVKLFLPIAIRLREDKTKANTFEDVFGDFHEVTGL
Summary of the method: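 This counter-screen used a FRET-based DNA joining assay. Duplicate reactions held 10 pmol nicked DNA substrate and 10 units T4 DNA ligase, with or without 100 μmol/L compound. T4 ligase lacks the DNA-binding domain targeted in silico, so compounds inhibiting it were flagged as non-specific, likely DNA-binding.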

[4] = tested on: MCF7, HCT116, HeLa, and MCF10A cells; assay: Survival assay on cell panel (FIG. 9); format: cell-based, human; settings: Homo sapiens; cell line not stated
Excerpt: FIG. 9. […] A, effect of L67 (left) and L189 (right) on the survival of MCF7 (Δ), HCT116 (□), HeLa (⋄), and MCF10A (upsidedown triangle) cells. B, normal breast epithelial MCF10A cells (open symbols) and breast cancer MCF7 cells (filled symbols) in the absence (circles) or presence of 3 μmol/L of L67 (squares) were exposed to increasing concentrations of MMS (left). Normal breast epithelial MCF10A cells (open symbols) and colon cancer HCT116 cells (filled symbols) in the absence (circles) or presence of 20 μmol/L of L189 (squares) were exposed to increasing doses of ionizing radiation (right). C, hLigI (I), hLigIIIα (III), and hLigIV (IV) were detected in extracts (400 μg) of the indicated cell lines by immunoblotting. To control for extract loading β-actin was also detected by immunoblotting.
For survival assays, cells were plated in 6 well plates and grown either in the absence or presence of ligase inhibitors. Where indicated, either MMS (0-50 μM) was added to the medium or the cells were irradiated in a Cs-137 irradiator (0-2.5 Gy). After two weeks, colonies were stained with crystal violet (Sigma) and then counted.

[5] = target: T3, human DNA ligase III (Homo sapiens, UniProt P49916); assay: High-throughput fluorescence-based DNA joining (ligation) assay; format: biochemical; settings: for inhibition at 100 µM: read-out: In vitro % inhib hLigIII 100; for % activity Inhibition hLigIII 100 uM: Ø not defined (0 in Table 5A)
T3 sequence (P49916 1-862 isoform P49916-4): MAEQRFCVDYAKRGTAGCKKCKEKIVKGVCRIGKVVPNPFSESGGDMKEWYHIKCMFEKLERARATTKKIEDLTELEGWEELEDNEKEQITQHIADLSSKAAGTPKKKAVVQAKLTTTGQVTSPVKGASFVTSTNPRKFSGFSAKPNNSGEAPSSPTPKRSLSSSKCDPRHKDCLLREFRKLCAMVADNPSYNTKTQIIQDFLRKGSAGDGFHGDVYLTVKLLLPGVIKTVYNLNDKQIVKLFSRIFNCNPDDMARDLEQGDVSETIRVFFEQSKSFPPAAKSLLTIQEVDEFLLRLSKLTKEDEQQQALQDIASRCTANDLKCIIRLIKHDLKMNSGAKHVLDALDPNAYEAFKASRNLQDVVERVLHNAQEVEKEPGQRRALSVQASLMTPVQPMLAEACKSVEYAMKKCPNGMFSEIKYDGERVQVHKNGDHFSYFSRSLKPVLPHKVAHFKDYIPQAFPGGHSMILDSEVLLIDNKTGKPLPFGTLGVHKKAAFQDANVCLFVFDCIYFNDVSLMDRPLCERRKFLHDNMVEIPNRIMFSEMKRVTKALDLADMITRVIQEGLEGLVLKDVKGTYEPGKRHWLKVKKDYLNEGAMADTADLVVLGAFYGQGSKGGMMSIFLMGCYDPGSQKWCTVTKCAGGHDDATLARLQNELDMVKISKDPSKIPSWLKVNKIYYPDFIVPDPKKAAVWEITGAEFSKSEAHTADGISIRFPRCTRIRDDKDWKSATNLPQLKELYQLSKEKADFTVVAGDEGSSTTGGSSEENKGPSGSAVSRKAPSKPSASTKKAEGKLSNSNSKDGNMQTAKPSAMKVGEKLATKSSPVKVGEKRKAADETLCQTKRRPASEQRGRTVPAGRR
Summary of the method: (§1)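 Ligation joins an AF488-labelled and a BHQ1-labelled oligonucleotide. After denaturation and renaturation with a 20-fold excess of unlabelled competitor strand, the product forms a quenched hairpin, so joining is read as loss of 518 nm fluorescence. Ligase III used a nicked duplex; ligase IV used two duplexes with short complementary single-strand ends.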

[6] = target: human DNA ligase IV (Homo sapiens, UniProt P49917); assay: as above; format: biochemical; settings: for inhibition of human DNA ligase IV, in words: in vitro screen
Summary of the method: as §1

[7] = tested on: Human DNA ligases I, III and IV and T4 DNA ligase; assay: Step 3 of the ligation reaction: ligation of preadenylated nick by non-adenylated ligase; format: biochemical; settings: 100 μM, FIG. 3C
Method: To analyze step 3 of the ligation reaction, an adenylated labeled version of the 18-mer was prepared as described (24). The DNA substrate containing a preadenylated nick (0.5 pmol) and hLigI (0.05 pmol), hLigIIIβ (0.05 pmol), hLigIV/XRCC4 (0.1 pmol), or T4 DNA ligase (0.05 pmol) were incubated in ligation buffer without ATP, either in the presence or absence of the ligase inhibitors (100 μmol/L). Reactions were stopped by the addition of an equal volume of gel loading dye (95% formamide, 0.05% bromophenol blue, and 0.05% xylene cyanol). After heating at 95° C. for 5 min, DNA was separated by denaturing polyacrylamide gel electrophoresis. Labeled oligonucleotides were detected and quantitated in the dried gel by phosphorImager analysis (Molecular Dynamics).
Since the final two steps of the ligation reaction involve interactions with DNA, we examined the effects of the ligase inhibitors on the second (FIG. 3B) (The labeled ligase-adenylate form of human DNA ligases I, III and IV and T4 DNA ligase were incubated with a linear DNA substrate containing a single non-ligatable nick in the absence or presence of compounds 67, 82 and 189 (100 μM). After separation by denaturing gel electrophoresis, the labeled DNA-AMP complex was detected by phosphorimaging (26)) and third steps (FIG. 3C) of the ligation reaction using established assays (25,26) (Non-adenylated human DNA ligases I, III and IV and T4 DNA ligase were incubated with labeled DNA-AMP in the absence or presence of compounds 67, 82 and 189 (100 μM). After separation by denaturing gel electrophoresis, labeled ligated DNA was detected by phosphorimaging (25)).

[8] = target: T4, hLigIIIβ (Homo sapiens, UniProt P49916); assay: Radioactive gel-based DNA ligation assay; format: biochemical; settings: grades ±, Ø (key not given)
T4 sequence (P49916 1-862 isoform P49916-4): T3 sequence (P49916 1-862 isoform P49916-4)

[9] = 100 μM, read-out: In vitro % inhib hLigI 100
[10] = 100 μM, read-out: In vitro % inhib T4 100
[11] = 100 μM, read-out: In vitro % inhib hLigIV 100
[12] = 100 uM, Ø not defined (0 in Table 5A), read-out: % activity Inhibition hLigIV 100 uM
[13] = 100 uM, Ø not defined (0 in Table 5A)

T1 sequence (P18858 whole entry): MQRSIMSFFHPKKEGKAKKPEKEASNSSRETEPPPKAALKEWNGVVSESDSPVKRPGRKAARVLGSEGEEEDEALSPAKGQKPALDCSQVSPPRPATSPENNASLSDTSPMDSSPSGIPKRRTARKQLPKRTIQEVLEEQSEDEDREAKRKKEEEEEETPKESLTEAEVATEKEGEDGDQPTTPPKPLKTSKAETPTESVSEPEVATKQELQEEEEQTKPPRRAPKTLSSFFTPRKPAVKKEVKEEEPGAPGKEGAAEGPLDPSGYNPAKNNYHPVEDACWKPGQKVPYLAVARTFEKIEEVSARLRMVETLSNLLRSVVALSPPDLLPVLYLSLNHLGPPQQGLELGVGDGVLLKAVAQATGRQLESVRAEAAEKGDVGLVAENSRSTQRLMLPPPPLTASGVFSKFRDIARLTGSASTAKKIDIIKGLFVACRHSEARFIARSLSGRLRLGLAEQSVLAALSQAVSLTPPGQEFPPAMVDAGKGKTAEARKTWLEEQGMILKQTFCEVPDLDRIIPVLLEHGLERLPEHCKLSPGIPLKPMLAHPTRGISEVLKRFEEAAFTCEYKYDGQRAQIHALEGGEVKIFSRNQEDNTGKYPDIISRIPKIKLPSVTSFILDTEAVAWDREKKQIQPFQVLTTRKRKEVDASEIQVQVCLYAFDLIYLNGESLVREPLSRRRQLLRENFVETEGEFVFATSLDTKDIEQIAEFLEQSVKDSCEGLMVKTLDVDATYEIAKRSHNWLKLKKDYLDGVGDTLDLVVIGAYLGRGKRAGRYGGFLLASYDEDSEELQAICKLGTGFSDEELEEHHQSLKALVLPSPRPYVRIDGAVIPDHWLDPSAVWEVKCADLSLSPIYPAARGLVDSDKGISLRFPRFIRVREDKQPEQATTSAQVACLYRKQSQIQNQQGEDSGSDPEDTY
Sequence of hLigIV/XRCC4 (P49917 whole entry): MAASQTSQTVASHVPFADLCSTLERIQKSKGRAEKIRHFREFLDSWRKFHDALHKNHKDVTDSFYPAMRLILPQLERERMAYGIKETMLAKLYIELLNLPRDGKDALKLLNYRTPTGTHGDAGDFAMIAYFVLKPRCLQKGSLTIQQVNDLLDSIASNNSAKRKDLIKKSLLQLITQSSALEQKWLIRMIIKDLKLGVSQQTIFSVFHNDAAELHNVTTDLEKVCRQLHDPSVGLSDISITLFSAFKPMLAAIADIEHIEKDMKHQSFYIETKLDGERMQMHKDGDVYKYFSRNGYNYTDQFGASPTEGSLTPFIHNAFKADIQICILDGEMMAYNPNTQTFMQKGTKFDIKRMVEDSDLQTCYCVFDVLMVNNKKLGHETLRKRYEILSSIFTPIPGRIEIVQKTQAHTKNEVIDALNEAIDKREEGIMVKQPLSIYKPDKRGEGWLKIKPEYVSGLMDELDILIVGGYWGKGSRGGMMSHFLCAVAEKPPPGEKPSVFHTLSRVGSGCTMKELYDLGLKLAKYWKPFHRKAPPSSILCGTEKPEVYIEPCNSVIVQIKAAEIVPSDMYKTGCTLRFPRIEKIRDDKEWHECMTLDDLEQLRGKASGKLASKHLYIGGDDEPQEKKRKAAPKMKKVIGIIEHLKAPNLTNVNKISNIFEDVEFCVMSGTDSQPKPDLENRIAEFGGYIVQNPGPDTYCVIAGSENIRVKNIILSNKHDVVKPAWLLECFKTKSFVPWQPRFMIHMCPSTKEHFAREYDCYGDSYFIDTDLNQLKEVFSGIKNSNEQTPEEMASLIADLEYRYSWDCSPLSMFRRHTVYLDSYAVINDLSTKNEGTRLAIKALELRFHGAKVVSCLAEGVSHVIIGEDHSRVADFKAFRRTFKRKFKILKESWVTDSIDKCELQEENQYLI
Sequence of hLigIV/XRCC4 (Q13426 whole entry partner): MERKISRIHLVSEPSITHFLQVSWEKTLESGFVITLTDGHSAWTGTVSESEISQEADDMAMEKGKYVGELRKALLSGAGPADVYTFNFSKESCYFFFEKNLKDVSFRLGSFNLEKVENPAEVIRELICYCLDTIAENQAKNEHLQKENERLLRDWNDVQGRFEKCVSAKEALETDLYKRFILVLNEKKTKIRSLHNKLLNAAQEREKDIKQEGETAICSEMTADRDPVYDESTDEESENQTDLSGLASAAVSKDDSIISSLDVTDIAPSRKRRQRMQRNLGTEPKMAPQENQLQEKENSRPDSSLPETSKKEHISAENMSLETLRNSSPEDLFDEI
Sequence of human DNA ligase IV (P49917 whole entry): as the sequence (P49917 whole entry) above
Sequence of human DNA ligase IV (Q13426 whole entry partner): as the sequence (Q13426 whole entry partner) above

With `O=C(O)c1cnn2c(C(F)(F)F)cc(-c3ccco3)nc12` [Compound 215] the “% activity Inhibition hLigI 100 uM” value ([1]; 100 uM) was “Ø”, the inhibition at 100 µM [1, 9] was 0% and the “% activity Inhibition hLigIV gel” value [2] was 53%. The “% activity Inhibition LigT4 100 uM” value [3] was “Ø”, the inhibition at 100 µM [3, 10] was 0% and the EC50 [4] was > 100 µM. For the same compound, the inhibition at 100 µM ([5]; 100 μM) was 0%, the “% activity Inhibition hLigIII 100 uM” value [5] was “Ø” and the inhibition at 100 µM [6, 11] was 61 ± 1%. For the same compound, the inhibition at 100 µM [6, 12] was 60.7 ± 1.3% and the “inhibition of human DNA ligase IV, in words” value [6] was “specific for DNA ligase IV”.

`O=C(O)CN1C(=O)C(=O)c2ccccc21` [Compound 76] was tested, and the “inhibition of step 3 of the ligation reaction” value [7] was “inhibit step 3”.

In the case of `O=C(O)Cc1cncc(Br)c1` [Compound 122], the “% activity Inhibition hLigI 100 uM” value ([1]; 100 uM) is reported as “Ø”, the inhibition at 100 µM [1, 9] is reported as 0% and the “% activity Inhibition hLigIV gel” value [2] is reported as 50%. For the same compound, the “% activity Inhibition LigT4 100 uM” value [3] was “Ø”, the inhibition at 100 µM [3, 10] was 0% and the EC50 [4] was > 100 µM. For the same compound, the inhibition at 100 µM ([5]; 100 μM) was 0%, the “% activity Inhibition hLigIII 100 uM” value [5] was “Ø” and the inhibition at 100 µM [6, 11] was 50 ± 5%. The inhibition at 100 µM [6, 12] was 16.1 ± 19.1% and the “inhibition of human DNA ligase IV, in words” value [6] was “specific for DNA ligase IV”.

With `CSc1ccc(C(=O)O)s1` [Compound 1] the inhibition at 100 µM ([1]; 100 uM, read-out: % activity Inhibition hLigI 100 uM) was 40.3 ± 8.6%, the inhibition at 100 µM [1, 9] was 40 ± 9% and the “inhibition of hLigI (DNA ligase I), in words” value [1] was “specific for DNA ligase I”. The inhibition at 100 µM [3, 10] was 0%, the inhibition at 100 µM ([3]; read-out: % activity Inhibition LigT4 100 uM) was 0% and the “% activity Inhibition hLigIII gel” value [8] was “Ø”. For the same compound, the inhibition at 100 µM ([5]; 100 μM) was 0%, the “% activity Inhibition hLigIII 100 uM” value [5] was “Ø” and the inhibition at 100 µM [6, 11] was 0%. For the same compound, the “% activity Inhibition hLigIV 100 uM” value [6, 13] was “Ø”.

`NS(=O)(=O)c1ccc(CCNC(=O)CCS(=O)(=O)c2ccc(Br)cc2)cc1` [Compound 113] was tested, and the “% activity Inhibition hLigI 100 uM” value ([1]; 100 uM) was 53.4 ± 7.6%, the “In vitro % inhib hLigI 100 (μM)” value ([1]; 100 μM) was 53 ± 8% and the “hLigI_Inh % (100 μM)” value ([1]; 100 μM, percentage of values obtained with DMSO alone) was 53.4 ± 7.6%. The “inhibition of hLigI (DNA ligase I), in words” value [1] was “inhibited hLigI; also recorded: specifically inhibits both DNA ligases I and IV”, the “% activity Inhibition hLigIV gel” value [2] was 83% and the “% activity Inhibition LigT4 100 uM” value [3] was 5.4 ± 4.5%. For the same compound, the “In vitro % inhib T4 100 (μM)” value ([3]; 100 μM) was 5 ± 5%, the “% activity Inhibition hLigIII gel” value [8] was “Ø” and the “In vitro % inhib hLigIII 100 (μM)” value ([5]; 100 μM) was 0%. The “% activity Inhibition hLigIII 100 uM” value [5] was “Ø”, the “In vitro % inhib hLigIV 100 (μM)” value ([6]; 100 μM) was 83 ± 5% and the “% activity Inhibition hLigIV 100 uM” value [6, 13] was >50%. For the same compound, the “inhibition of human DNA ligase IV, in words” value [6] was “specifically inhibits both DNA ligases I and IV”.

Source: patent US9757375B2, “Compounds that inhibit human DNA ligases and methods of treating cancer” (University of Maryland, Baltimore, priority 2007, dated 2017)
